Assays:
[1] = system: five melanoma cell lines, including mutant B-RAFV600E and wild-type; design: method as in PMID 30691132; conditions: range over cell lines; read-out: IC50 values against five melanoma cell lines; cited from earlier work
A549 cells = assay: CCK-8 antiproliferation assay, A549; type: cell-based; conditions: Homo sapiens, 48 h
Protocol: (§1) Human lung carcinoma cell lines A549, human cervical cancer cell lines HeLa, human prostate cancer cell lines PC3, human colorectal carcinoma cell lines HCT116, and human liver cells L02 were purchased from the Chinese Academy of Sciences Shanghai Cell Bank (Shanghai, China). HeLa, A549, PC3, HCT116, and L02 cells were cultured in DMEM Dulbecco’s Modified Eagle Medium (DMEM; Gibco Inc., Gaithersburg, MD, USA). All cultures were provided with 10% fetal bovine serum (FBS; YHSM, Beijing, China), 100 IU/mL penicillin, and 100 μg/mL streptomycin, and cells were incubated at 37 °C in an atmosphere of 5% CO2.
(§2) Cell viability was determined using a CCK-8 kit (Apexbio, Houston, TX, USA). […] Subsequently, absorbance was assessed at 450 nm. Three duplicates were set in each group.
(§3) All synthesized quinoxalines compounds were tested for in vitro cytotoxicity against four cancer cell lines (HeLa, PC3, A549, and HCT116). The inhibitory effects of these compounds were evaluated using the CCK-8 assay after treatment with 20 μM of each compound. […] The species of phenyl substituents have a significant effect on the activity. […] By comparison, hydrophobic substitution at the phenyl ring gave derivatives with relatively low potency (QW7–8). In addition, large substituents on the phenyl ring exerted an unfavorable influence on the potency of the compounds (QW8 and QW16).

HCT116 cells = assay: CCK-8 antiproliferation assay, HCT116; type: cell-based; conditions: Homo sapiens, HCT-116, 48 h
Protocol: as §1, §2, §3

L02 cells = assay: CCK-8 cytotoxicity against normal hepatocytes L02; type: cell-based; conditions: Homo sapiens, 48 h, read-out: IC50 ± SD, L02 (human normal hepatocytes)
Protocol: as §1, §2
To further evaluate the anticancer effect of QW12, we evaluated its cytotoxicity against four human cancer cell lines: HeLa (Human cervical tumor), PC3 (Human prostate tumor), HCT116 (Human colorectal carcinomas), and A549 (Human lung carcinoma). […] Furthermore, the IC50 values of QW12 against PC3 and HCT116 were similar to those of nifuroxazide.

HeLa cells = assay: CCK-8 antiproliferation assay, HeLa; type: cell-based; conditions: Homo sapiens, 48 h
Protocol: as §1, §2, §3

PC3 cells = assay: CCK-8 antiproliferation assay, PC3; type: cell-based; conditions: Homo sapiens, PC-3, 48 h
Protocol: as §1, §2, §3

## N=C(N)[Se]Cc1nc2ccccc2nc1C[Se]C(=N)N [Compound 5]
[1]
  IC50: 0.8 to 3.8 µM

## O=C(N/N=C/c1ccc([N+](=O)[O-])o1)c1ccc(O)cc1 [Nifuroxazide, nifuroxazide, reference compound]
A549 cells; 20 μM, CCK-8, mean ± SD, read-out: Inhibition Rate (%) at 20 μM, A549
  inhibition at 20 µM: 91.23 ± 0.04%
A549 cells; CCK-8, read-out: IC50 ± SD, A549
  IC50: 8.06 ± 0.03 µM
HCT116 cells; 20 μM, CCK-8, mean ± SD, read-out: Inhibition Rate (%) at 20 μM, HCT116
  inhibition at 20 µM: 85.31 ± 0.24%
HCT116 cells; CCK-8, read-out: IC50 ± SD, HCT116
  IC50: 10.46 ± 0.04 µM
L02 cells
  IC50: 25.3 ± 0.31 µM
HeLa cells; HeLa, CCK-8, read-out: IC50 ± SD, HeLa
  IC50: 16.65 ± 0.08 µM
HeLa cells; 20 μM, CCK-8, mean ± SD, read-out: Inhibition Rate (%) at 20 μM, HeLa
  inhibition at 20 µM: 80.38 ± 0.17%
PC3 cells; 20 μM, CCK-8, mean ± SD, read-out: Inhibition Rate (%) at 20 μM, PC3
  inhibition at 20 µM: 75.29 ± 0.33%
PC3 cells; CCK-8, read-out: IC50 ± SD, PC3
  IC50: 9.83 ± 0.05 µM

From publication PMC9698340, “Discovery and SAR Study of Quinoxaline–Arylfuran Derivatives as a New Class of Antitumor Agents” (Pharmaceutics, 2022)
